Data on 15 compounds can be found in patent US5455348A, “2-pyrrolidinones, pharmaceutical compositions containing these compounds and processes for preparing them” (Thomae; Karl, priority 1991, dated 1995).

Data set [1] has as its system collagen-induced thrombocyte aggregation. Kind of data set: Inhibition of collagen-induced thrombocyte aggregation ex vivo after oral administration. The data set is classed as in vivo. Particulars: Rhesus monkeys, oral administration of 1 mg/kg. How it is done:
Moreover, the compound of Example 5, for example, inhibits the collagen-induced thrombocyte aggregation ex vivo in Rhesus monkeys for more than 8 hours after oral administration of 1 mg/kg.

Data set [2] addresses fibrinogen binding to human thrombocytes. Kind of data set: Fibrinogen binding to human thrombocytes. Particulars: gel-filtered human platelets, 125I fibrinogen, ADP, 20 minutes, ambient temperature; read-out: Fibrinogen-binding test IC50.
Experimental: The blood obtained by puncturing an antecubital vein is anticoagulated with trisodium citrate (final concentration: 13 mM) and centrifuged for 10 minutes at 170×g. The supernatant platelet-rich plasma is poured onto a Sepharose 2B column (Pharmacia) and eluted with a solution of 90 mM common salt, 14 mM trisodium citrate, 5 mM glucose and 50 mM Tris(hydroxymethyl)aminomethane, adjusted to pH 7.4. The gel-filtered platelets (GFP) appearing before the plasma proteins are used for the binding experiments.
50 μl of a 60 mM calcium chloride solution, 50 μl of a 0.6 mM adenosine diphosphate solution, 100 μl of substance solution or solvent and 50 μl of fibrinogen solution (containing 3 μg of ^125 I fibrinogen) are added to 750 μl of GFP and incubated for 20 minutes at ambient temperature. The non-specific binding is determined in the presence of 3 mg/ml of cold fibrinogen.
900 μl of the incubated material are carefully pipetted onto 250 μl of silicon oil (AP 38: AR 20, 1:2 v/v, Wacker Chemie) in Eppendorf tubes and centrifuged for 2 minutes at 10,000×g. The aqueous supernatant and some of the oil are drawn off, the tips of the tubes are cut off together with the platelet pellet and the quantity of bound fibrinogen is determined in a gamma counter. The concentration of substance which brings about a 50% inhibition in fibrinogen binding is determined from a series of concentrations and is given as the IC50 value.
Data set [3] deals with collagen-induced thrombocyte aggregation in platelet-rich plasma. Put plainly: Collagen-induced platelet aggregation in platelet-rich plasma (Born and Cross method). The data set is classed as cell-based, healthy volunteers (human). Particulars: read-out: Inhibition of platelet aggregation EC50.
Experimental: The thrombocyte aggregation is measured using the Born and Cross method (J. Physiol. 170: 397 (1964)) in platelet-rich plasma taken from healthy volunteers. To inhibit coagulation the blood is mixed with 3.14% sodium citrate in a ratio by volume of 1:10.
Collagen-induced aggregation
The pattern of the decrease in optical density of the platelet suspension is photometrically measured and recorded after the addition of aggregation-triggering substance. The rate of aggregation is concluded from the angle of inclination of the density curve. The point on the curve where there is maximum light transmittance is used to calculate the optical density.
The amount of collagen used is as small as possible but sufficient to produce an irreversible reaction curve. Standard commercial collagen produced by Hormonchemie of Munich is used. Before the addition of the collagen the plasma is incubated for 10 minutes with the substance at 37° C.
From the measurements obtained an EC50 is determined graphically, indicating a 50% change in the optical density in terms of the inhibition of aggregation.
The nature of data set [4]: Tolerance after intravenous administration. The data set is classed as in vivo. The following applies: intravenous administration of 30 mg/kg to three mice.
Where [5] appears, read: collagen-induced, human platelet-rich plasma, 10 minutes preincubation at 37° C.

One may read the IC50 as the concentration that inhibits the measured activity by half. The EC50 is the concentration at which the effect is half-maximal.

Structures can show the parent of a compound that is named as a salt. Where two headings read alike, the source gives them in different places.

`COC(=O)C[C@@H]1C[C@@H](COc2ccc(-c3ccc(C(=N)NC(=O)OC)cn3)cc2)NC1=O` [Example 5, (3S,5S)-5-[[4-[5-(N-Methoxycarbonylamidino)-2-pyridyl]phenyl]oxymethyl]-3-[(methoxycarbonyl)methyl]-2-pyrrolidinone]: in data set [1], the “inhibits the collagen-induced thrombocyte aggregation ex vivo for (duration)” value is given as “more than 8 hours”.
Consider `N=C(N)c1ccc(-c2ccc(OC[C@@H]3C[C@@H](CC(=O)O)CN3C(=O)c3cccnc3)cc2)cc1` [Example 4(4), (3S,5S)-5-[(4'-amidino-4-biphenylyl)oxymethyl]-3-carboxymethyl-1-nicotinoyl-pyrrolidine], for which the IC50 in data set [2] amounted to 140 nM. Further, the EC50 in data set [3] (setting [5]) is 210 nM.
With `N=C(N)c1ccc(-c2ccc(NC[C@@H]3C[C@@H](CC(=O)O)C(=O)N3)nn2)cc1` [Example 4(13), (3S,5S)-5-[[6-(4-amidinophenyl)-3-pyridazinyl]aminomethyl]-3-carboxymethyl-2-pyrrolidinone], the IC50 in data set [2] came to 59 nM. The EC50 in data set [3] (setting [5]) turned out to be 590 nM.
As to `N=C(N)c1cnc(-c2ccc(OC[C@@H]3C[C@@H](CC(=O)O)C(=O)N3)cc2)s1` [Example 1(3), (3S,5S)-5-[[4-(5-amidino-2-thiazolyl)phenyl]oxymethyl]-3-carboxymethyl-2-pyrrolidinone×0.6 H2 O], in data set [2], the IC50 came out at 42 nM. Further, in data set [3] (setting [5]), the EC50 was determined as 100 nM.
For `N=C(N)N1Cc2ccc(C(=O)NCC[C@@H]3C[C@@H](CC(=O)O)C(=O)N3CCCc3ccccc3)cc2C1` [Example 11, (3S,5S)-5-[2-[(2-amidino-5-isoindolinyl)carbonylamino]ethyl]-3-carboxymethyl-1-(3-phenylpropyl)-2-pyrrolidinone], in that order: 270 nM and 890 nM.
With `COC(=O)C[C@@H]1C[C@@H](COc2ccc(-c3ccc(C(=N)N)cc3)cc2)N(c2cccnc2)C1=O` [Example 6(3), (3S,5S)-5-[(4'-amidino-4-biphenylyl)oxymethyl]-3-[(methoxycarbonyl)methyl]-1-(3-pyridyl)-2-pyrrolidinone×1.2 HCl×1 H2 O], in data set [2], the IC50 was 13000 nM. Also, in data set [3] (setting [5]), the EC50 turned out to be 2500 nM.
For `N=C(N)c1ccc2c(c1)CCN(C(=O)NCC[C@@H]1C[C@@H](CC(=O)O)C(=O)N1CCCc1ccccc1)CC2` [Example 4(8), (3S,5S)-5-[2-[(7-amidino-1H-2,3,4,5-tetrahydro-3-benzazepin-3-yl)carbonylamino]ethyl]-3-carboxymethyl-1-(3-phenylpropyl)-2-pyrrolidinone×2 H2 O], in that order: 770 nM and 5500 nM.
As for `O=C(O)C[C@@H]1C[C@@H](CCNC(=O)c2ccc(C3CCNCC3)cc2)N(CCCc2ccccc2)C1=O` [Example 12(6), (3S,5S)-3-carboxymethyl-1-(3-phenylpropyl)-5-[2-[[4-(4-piperidinyl)phenyl]carbonylamino]ethyl]-2-pyrrolidinone×0.75 H2 O], the IC50 in data set [2] was 570 nM. Further, in data set [3] (setting [5]), the EC50 turned out to be 3800 nM.
For `N=C(N)c1ccc(-c2ccc(OC[C@@H]3C[C@@H](CC(=O)O)C(=O)N3c3cccnc3)cc2)cc1` [Example 4(6), (3S,5S)-5-[(4'-amidino-4-biphenylyl)oxymethyl]-3-carboxymethyl-1-(3-pyridyl)-2-pyrrolidinone×1.2 H2 O], in that order: 31 nM and 160 nM.
In the case of `Nc1nccc2cc(-c3ccc(OC[C@@H]4C[C@@H](CC(=O)O)C(=O)N4)cc3)ccc12` [Example 4(3), (3S,5S)-5-[[4-(1-amino-6-isoquinolinyl)phenyl]oxymethyl]-3-carboxymethyl-2-pyrrolidinone-hydrochloride], the IC50 in data set [2] came to 160 nM. Moreover, in data set [3] (setting [5]), the EC50 worked out at 38000 nM.
`N=C(N)c1ccc(-c2ccc(OC[C@@H]3C[C@@H](CC(=O)O)C(=O)N3)cc2)nc1` [Example 1, (3S,5S)-5-[[4-(5-amidino-2-pyridyl)phenyl]oxymethyl]-3-carboxymethyl-2-pyrrolidinone]: the animals died entry in data set [4] is “no animals died”. For the same compound, the EC50 in data set [3] (setting [5]) was 60 nM.
As for `Cn1nc(-c2ccc(C(=N)N)cc2)cc(C(=O)NC[C@@H]2C[C@@H](CC(=O)O)C(=O)N2)c1=O` [Example 4(15), (3S,5S)-5-[[[6-(4-amidinophenyl)-2-methyl-3(2H)-pyridazinon-4-yl]carbonyl]aminomethyl]-3-carboxymethyl-2-pyrrolidinone], the IC50 in data set [2] is 590 nM. For the same compound, the EC50 in data set [3] (setting [5]) is 3000 nM.
For `N=C(N)c1ccc(-c2ccc(OC[C@@H]3C[C@@H](CC(=O)O)CN3c3ncccn3)cc2)cc1` [Example 4(2), (3S,5S)-5-[(4'-amidino-4-biphenylyl)oxymethyl]-3-carboxymethyl-1-(2-pyrimidyl)-pyrrolidine×0.25 HCl×0.4 H2 O] the same measures were 200 nM and 540 nM.
For `N=C(N)c1ccc(-c2ccc(OC[C@@H]3C[C@@H](CC(=O)O)C(=O)N3CCCc3ccccc3)nn2)cc1` [Example 4(11)] the same measures were 32 nM and 100 nM.
Consider `N=C(N)c1ccc(NC(=O)c2cccn(C[C@@H]3C[C@@H](CC(=O)O)C(=O)N3CCCc3ccccc3)c2=O)cc1` [4(18)], for which, in data set [4], the animals died entry is “no animals died”. Moreover, in data set [2], the IC50 was found to be 55 nM. The EC50 in data set [3] (Homo sapiens, Platelet) turned out to be 430 nM.
